Assay results reported in patent publication US20010048964A1, “Low calorie fat compositions” (priority 2000, published 2001).

Columns and labels:
[1] = Caloric availability, two week feeding study; assay type: in vivo; details: young male Sprague-Dawley rats, modified AIN-76 diet at 15% added fat level
Experimental: Caloric availability of the compounds are evaluated by the two week feeding study of young male Sprague-Dawley rats weighing approximately 50 to 60 gm. This caloric availability study as described described by Finley, et al. ((1994) J. Agric. Food Chem. 42:489-494) was modified to use smaller amounts of test materials. The feeding study was conducted using a modified AIN-76 diet at 15% added fat level and five test animals are used for each compound. Weight gains are monitored at days 0,3,7,10 and 14.

porcine lipase [2] = target: T1, porcine lipase (Sus scrofa, UniProt P00591); test: Hydrolysis by pancreatic lipase, aqueous emulsion system; assay type: in vitro ADME; details: aqueous emulsion (HMPC, sodium cholate), 30 ° C.
T1 sequence (P00591 1-450): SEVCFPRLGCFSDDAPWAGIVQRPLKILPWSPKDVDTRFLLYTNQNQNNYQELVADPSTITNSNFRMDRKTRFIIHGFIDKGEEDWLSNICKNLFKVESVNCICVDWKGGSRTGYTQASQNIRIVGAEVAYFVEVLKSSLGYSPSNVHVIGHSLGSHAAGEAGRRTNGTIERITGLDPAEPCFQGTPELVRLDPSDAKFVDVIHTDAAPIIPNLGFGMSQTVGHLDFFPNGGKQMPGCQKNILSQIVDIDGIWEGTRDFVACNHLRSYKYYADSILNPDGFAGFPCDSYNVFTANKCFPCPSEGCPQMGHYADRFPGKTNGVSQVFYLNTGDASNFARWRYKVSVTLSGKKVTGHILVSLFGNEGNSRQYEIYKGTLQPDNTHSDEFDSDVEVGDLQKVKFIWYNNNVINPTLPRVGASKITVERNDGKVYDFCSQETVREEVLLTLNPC
Experimental: (§1) The digestibility of the acylated triglycerides of the present invention were done to compare with triolein. The in-vitro assays were done using two emulsion systems as in the following procedure.
A mixture of 300 mg of the fat/fat substitute, 4 ml of Bis-Tris propane buffer (10 mM, pH 7.8), 5 ml of hydroxyproylmethylcellulose (HMPC, […]), 0.5 ml of sodium cholate (0.1M) were sonicated to disperse the fats and incubated at 30 ° C. Porcine lipase (0.5 ml, 20 mg/ml) was added. The analysis of the reaction was carried out as in the above organic solution assay. Acetylated castor (hydrogenated) was 70% hydrolyzed while triolein under similar conditions was 93% hydrolyzed.

porcine lipase [3] = target: T1, porcine lipase; test: Hydrolysis by pancreatic lipase, organic solvent system; assay type: in vitro ADME; details: organic solvent (t-amyl alcohol), 30° C., 20 h
Experimental: as §1
Each digest was carried out with 300 mg of the fat/fat substitute, 9 ml of the t-amyl alcohol, 0.5 ml of Bis-Tris propane buffer (10 mM, pH 7.8) and 0.5 ml of porcine lipase (20 mg/ml). The reaction was incubated at 30° C. and the reaction stopped by adding 1 ml aliquots to 3 ml of isopropanol/heptane/sulfuric acid (40/10/1). The product was extracted with heptane and analyzed by GC and GC-MS at 360° C. The hydrolysis of the acetylated castor (hydrogenated) was 48% complete in 20 h and triolein was hydrolyzed to 69%.

Row | SMILES | caloric availability [1] | hydrolyzed (porcine lipase [2]) | hydrolysis (porcine lipase [3])
1 | CCCCCCCCCCCCCCCCCC(=O)OC(CCCCCC)CCCCCCCCCCCCC(=O)OCC(COC(=O)CCCCCCCCCCCCC(CCCCCC)OC(=O)CCCCCCCCCCCCCCCCC)OC(=O)CCCCCCCCCCCCCCCCC (stereo not shown) [distearoyl lesquerella oil-hydrogenated, 1,3-bis(14-octadecanoyloxy)eicosanoic acid-2-octadecanoic acid triglyceride] | 5.6 kcal/g |  | 
2 | CCCCCCC(CCCCCCCCCCC(=O)OCC(COC(=O)CCCCCCCCCCC(CCCCCC)OC(C)=O)OC(=O)CCCCCCCCCCC(CCCCCC)OC(C)=O)OC(C)=O (stereo not shown) [acetylated castor (hydrogenated), 12-acetyloxyoctadecanoic acid triglyceride] | 6 kcal/g | 70% | 48%
